Source: PMC11791359, “A select inhibitor of MORC2 encapsulated by chimeric membranecoated DNA nanocage target alleviation TNBC progression” (Materials Today Bio, 2025)
“Also recorded” adds a separate entry of the source. Residues, ends and D or L forms follow the SMILES beside them. *: point of attachment. Cbz = O=C(OCc1ccccc1)*; CH2F = FC*

Legend:
4T1 cells = test: CCK8 assay, 4T1; format: cell-based, mouse; conditions: CCK8, 4T1
Experimental: CCK8 assay was performed to confirm the optimal killing concentration of Angoline on TNBC cells (MDA-MB-231, MDA-MB-468, and 4T1) in vitro. […] Thus, we further verified our speculation by detecting the cell viability and apoptosis rate of TNBC cells treated with Angoline and/or apoptosis inhibitor (Z-VAD-FMK). As expected, the toxic effect of Angoline on TNBC cells was reduced by Z-VAD-FMK (Fig. 2F). […] Also, YO-PRO-1 staining confirmed that the proportion of apoptotic cells was reduced when Z-VAD-FMK was added in the Angoline treated group (Fig. 2H). […] While, the detailed pro-apoptotic mechanism needs to be further elucidated.

MDA-MB-468 cells = test: CCK8 assay, MDA-MB-468; format: cell-based, human; conditions: CCK8, MDA-MB-468, 24 h
Experimental: (§1) MDA-MB-231 and MDA-MB-468 cells were inoculated on 96-well plates with 5×10^3 cells per well, and then different small molecule drugs were added according to study requirements after the cell culture reached the appropriate density. Twenty-four hours after treatment, CCK-8 reagent was added to each well and incubated for 2 hours. Then, the absorbance of each well was measured at 450 nm using an enzyme-labeler to calculate the relative survival rate of cells.

TNBC cells [1] = test: Cell cycle by flow cytometry; format: cell-based, human; conditions: TNBC cells after Angoline treatment
Experimental: (§2) The treated cells were digested with pancreatic enzymes and then were collected and washed with PBS. The cells were immobilized with pre-cooled 70% ethanol at 4 ℃ for 12-24 hours, and then centrifuged, washed, and suspended to ensure uniform cell dispersion. Propyridine iodide staining solution was added to each cell sample and incubated without light at 37 ℃ for 30 minutes. Subsequently, the labeled cells were subjected to cell cycle analysis using flow cytometer (Beckman Coulter, USA), and the results were processed by FlowJo software. For the apoptosis assay, 1 × 10^5 cells per sample were collected into 1.5 mL centrifuge tubes and were re-suspended with 195 μL Annexin V-FITC binding solution. Then, 5 μL Annexin V-FITC and 10 μL PI dyeing solution were added into every sample to re-suspend the cells and incubated at 20-25 °C for 20 minutes. Flow cytometry was used to detect red fluorescence at 638 nm and green fluorescence at 488 nm, and the apoptosis results were analysed by FlowJo software.

TNBC cells [2] = test: Apoptosis by flow cytometry (Annexin V-FITC/PI); format: cell-based, human
Experimental: as §2

MORC2 protein = target: T1, MORC2 protein (Homo sapiens, UniProt Q9Y6X9); test: SPR molecular interaction, MORC2 protein (WT); format: binding
T1 construct: 6xHis; made in house; host or cells: Escherichia coli BL21
T1 sequence (Q9Y6X9 1-1032): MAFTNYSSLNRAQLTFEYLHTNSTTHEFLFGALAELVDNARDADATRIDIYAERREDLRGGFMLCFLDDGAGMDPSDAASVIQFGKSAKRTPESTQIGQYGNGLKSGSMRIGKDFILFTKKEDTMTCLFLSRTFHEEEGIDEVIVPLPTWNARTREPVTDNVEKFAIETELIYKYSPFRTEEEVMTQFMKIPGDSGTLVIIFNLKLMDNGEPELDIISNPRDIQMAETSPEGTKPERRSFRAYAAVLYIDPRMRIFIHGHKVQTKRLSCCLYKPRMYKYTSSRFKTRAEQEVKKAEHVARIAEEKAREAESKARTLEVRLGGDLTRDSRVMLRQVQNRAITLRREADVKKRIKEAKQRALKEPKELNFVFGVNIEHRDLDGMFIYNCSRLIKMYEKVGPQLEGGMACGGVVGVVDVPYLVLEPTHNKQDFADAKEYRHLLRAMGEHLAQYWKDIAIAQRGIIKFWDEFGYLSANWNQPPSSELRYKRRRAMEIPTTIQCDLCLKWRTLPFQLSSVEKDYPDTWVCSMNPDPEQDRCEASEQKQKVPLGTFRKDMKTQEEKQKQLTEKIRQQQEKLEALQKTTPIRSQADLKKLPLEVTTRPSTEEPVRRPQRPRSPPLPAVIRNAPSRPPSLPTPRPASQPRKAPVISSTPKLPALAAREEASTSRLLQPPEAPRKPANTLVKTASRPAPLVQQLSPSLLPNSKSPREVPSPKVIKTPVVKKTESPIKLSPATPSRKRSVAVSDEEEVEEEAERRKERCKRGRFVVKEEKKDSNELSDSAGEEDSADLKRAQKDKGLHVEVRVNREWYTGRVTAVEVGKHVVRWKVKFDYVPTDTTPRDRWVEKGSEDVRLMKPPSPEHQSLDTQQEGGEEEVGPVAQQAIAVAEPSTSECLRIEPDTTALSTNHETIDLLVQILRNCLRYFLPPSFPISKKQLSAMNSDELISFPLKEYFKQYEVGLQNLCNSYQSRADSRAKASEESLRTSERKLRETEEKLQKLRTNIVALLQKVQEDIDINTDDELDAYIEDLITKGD
Experimental: Topscience biological small molecule compound library was used to virtually screen out the potential small molecules by computer molecular docking. […] Then, a series of experiments were conducted to evaluate the binding ability between small molecule compounds and MORC2 protein. First, the optimal conditions for purification of MORC2 protein were investigated by univariate optimization method. Protein induction experiments were conducted under varying concentrations of IPTG (0 mM, 0.1 mM, 0.2 mM, 0.5 mM, 0.8 mM, 1 mM), temperature gradients (16 °C, 22 °C, 29 °C, 37 °C), and induction time (3 h, 6 h, 8 h, 10 h, 12 h). Finally, at 0.1 mM IPTG concentration, especially at 22 °C for 8 h, MORC2 protein expression reached the optimal level, which was verified by Coomassie blue staining (Figs. S7A–C). We cleared the other proteins by Binding/Wash Buffer 3 times and eluted the MORC2 protein with imidazole at 40 mM concentration to extract the high purity MORC2 protein (Fig. S7D). MORC2 protein with high purity was obtained according to the above conditions and verified by Coomassie blue staining (Fig. S7E). Then, surface plasmon resonance molecular interaction experiment was performed to detect the binding ability between small molecule compounds and MORC2 protein. […] Also, the binding strength between MORC2 and Angoline was dose-dependent on the concentration of Angoline (Fig. 2C). […]

MCF-10A cells = format: cell-based, human
Experimental: Furthermore, the toxicity and side effects of PMD (Angoline) were evaluated through a comprehensive series of experiments. Firstly, normal breast epithelial cells (MCF-10A) were used to assess drug toxicity. […] Furthermore, we tested the immune-promoting cytokines, such as TNF-α, IL-1β and IL-6.

[3] = tested on: IL6/STAT3 signaling pathway; design: method as in PMID 24863036; conditions: cited from earlier work
MDA-MB-231 cells = test: CCK8 assay, MDA-MB-231; format: cell-based, human; conditions: CCK8, MDA-MB-231, 24 h
Experimental: as §1

[4] = Pharmacokinetic study, single intravenous injection; design: species or system Sprague-Dawley (SD) rats; conditions: Sprague-Dawley, rat, in vivo
Experimental: A pharmacokinetic (PK) study was performed to assess whether PMD could improve Angoline's systemic circulation and extend its half-life. Following a single intravenous injection of various formulations into Sprague-Dawley (SD) rats, blood samples were collected at predetermined time points and analyzed using HPLC. As illustrated in Fig. S19A and summarized in Table 1, the plasma concentration-time curves and PK parameters are presented. […] Furthermore, the data obtained from the area under the concentration-time curve (AUC) further confirmed the enhanced PK properties. Thus, the biomimetic nanodrug delivery system (PMD) confers Angoline with enhanced PK properties, attributed to its high stability and sustained drug release kinetics.

[5] = tested on: phosphotyrosine STAT3 (p-STAT3); test: Western blot of p-STAT3 in TNBC cells; format: cell-based, human
Experimental: Disruption of the IL6/STAT3 signaling pathway can induce cell cycle arrest and apoptosis, which may contribute to the tumor cell death observed in our study following Angoline treatment. Thus, WB analysis was performed to verify our hypothesis. […] These changes were also observed in tumor-bearing mice treated with Angoline (Fig. 3G). Thus, Angoline may also killing the TNBC cells by inhibiting the IL6/STAT3 signaling pathway.
TNBC cells were inoculated in 10-cm plates with 50–60% confluence and incubated for 24 hours. Then, after cleaning the cells with PBS three times, the total proteins of cells were harvested by adding the RIPA lysis buffer and 1% Phenylmethanesulfonyl Fluoride (PMSF) into the plates and scraping off the lysed cells. The total proteins were calculated by the BCA protein estimation assay and were isolated by 10% SDS‒PAGE. The protein was transferred onto the PVDF membrane and then blocked with 5% skim milk powder for 2 hours. The protein bands were probed with corresponding antibodies and incubated at 4 °C overnight. Then, the secondary antibodies were added and incubated 1 h at room temperature. Finally, the membranes were detected by the enhanced chemiluminescence detection system.

[6] = tested on: primary TNBC cell xenograft tumors; test: In vivo antitumor efficacy, primary TNBC xenograft; design: species or system BALB/c nude mice
Experimental: Xenograft tumor models were established by injecting primary TNBC cells under the skin of BALB/c nude mice. Then, one week after implantation, the mice were administered with normal saline, Angoline, PMD and PMD (Angoline) respectively via tail vein injection every 3 days. Also, the tumor volume in mice was measured every three days. […] Finally, all mice were sacrificed three weeks later and xenografts were removed. […] Additionally, significant differences in tumor weight were observed among the four groups (Fig. […]). […] Thus, we performed immunofluorescence staining to analyze the expression of Ki-67 in different groups. […] Furthermore, TUNLE staining was performed to evaluate the apoptosis of tumors treated with different drugs (Fig. 5E). […] PMD(Angoline) was prepared by encapsulating Angoline into tDNAn following the assembly steps mentioned above. Tumor-bearing mice were established using primary TNBC cells obtained from patients, following the methods described in the animal assessment section. Then, those mice were intravenously administrated with saline, Angoline, PMD and PMD(Angoline) every 3 days, respectively. Meanwhile, the tumor volume and mice weight were continuously monitored every 3 days. Ultimately, the mice were sacrificed after three weeks to obtain the tumors and vital organs (heart, liver, spleen, lung and kidney). Ki-67 expression was detected by immunofluorescence to determine the tumor growth in different groups. Also, HE staining was used to determine the damage of different drugs to important organs.

[7] = tested on: TNBC-bearing BALB/c nude mice; conditions: mouse, in vivo
primary TNBC cells = test: Uptake by primary TNBC cells (fluorescence microscopy); format: cell-based, human; conditions: incubated 6 hours
neutrophils = test: Phagocytosis by neutrophils (fluorescence microscopy); format: cell-based, human; conditions: incubated 4 hours
[8] = tested on: TNBC-bearing BALB/c nude mice; test: In vivo distribution and tumor uptake in TNBC-bearing mice; conditions: tail vein injection, fluorescent in vivo imaging

## COc1ccc2c(c1OC)C(OC)N(C)c1c-2ccc2cc3c(cc12)OCO3 (stereo not shown) [Angoline]
4T1 cells
  inhibitory effect on cell viability: progressively increased with higher concentrations
MDA-MB-468 cells
  killing effect / inhibitory effect on cell viability: strongest killing effect; also recorded: progressively increased with higher concentrations
TNBC cells [1]
  cell cycle distribution: higher proportion of TNBC cells remained in S and G2 phases
TNBC cells [2]; TNBC cells treated with Angoline
  apoptosis rate: significantly increased; also recorded: dramatically increased
MORC2 protein
  Kd: 23.3 nM
MCF-10A cells
  toxicity toward MCF-10A cells: neither Angoline nor PMD (Angoline) exhibited toxicity
[3]
  suppression of IL6/STAT3 signaling pathway: suppress the IL6/STAT3 signaling pathway
MDA-MB-231 cells
  killing effect / inhibitory effect on cell viability: strongest killing effect; also recorded: progressively increased with higher concentrations
[4]
  C0: 3670 ± 280 ng/mL
[4]; SD rats, single i.v.
  AUC(0-inf): 15400 ± 190 ng·h/mL
  AUC(0-t): 13200 ± 320 ng·h/mL
  Cmax: 3410 ± 150 ng/mL
  MRT: 6.08 ± 0.18 h
  clearance: 2.29 mL/min
  half-life: 4.15 ± 0.06 h
[5]
  level of p-STAT3: significantly reduced
[6]; tail vein injection every 3 days, three weeks
  primary tumor growth (tumor volume): significant suppression of the primary tumor growth
[6]; tumor tissue
  apoptosis of tumors (TUNEL staining): significantly higher apoptosis rate compared to the groups treated with saline or PMD
  proliferation capacity of tumor cell (Ki-67 immunofluorescence): significantly lower in the Angoline group than that in saline or PMD groups, but higher than PMD(Angoline) group
[6]; tumor-bearing mice, every 3 days
  body weight: significantly increased

## COC(=O)C[C@H](NC(=O)[C@H](C)NC(=O)[C@@H](NC(=O)OCc1ccccc1)C(C)C)C(=O)CF [Z-VAD-FMK, reference compound] (Cbz-Val-Ala-Asp(OMe)-CH2F)
TNBC cells [2]; TNBC cells, Angoline plus apoptosis inhibitor
  effect on the proapoptotic effect of Angoline: significantly reduce the proapoptotic effect of Angoline

## Rhodamine
[7]
  uptake in tumor tissue sections: rarely taken up by tumor cells
Primary TNBC cells
  uptake by primary TNBC cells: rarely taken up by TNBC cells
neutrophils
  uptake by neutrophils: neutrophils were entirely covered with red fluorescence
[8]
  distribution in tumor-bearing mice: rapidly diffused throughout the nude mice and was quickly cleared
